Reference: patent US20170159130A1, “TRANSCRIPTIONAL CLASSIFICATION AND PREDICTION OF DRUG RESPONSE (T-CAP DR)” (priority 2015, published 2017)
Read-outs that look alike come from different tables or passages of the source.

Test system: human myeloma cell lines (HMCLs)
Assay: In vitro chemosensitivity (cytotoxicity) assay, CellTiter-Glo luminescent cell viability, panel of 50 HMCLs
Assay type: cell-based
Settings: for IC50: single agent, viability 48 hours post treatment; for AUSC (area under the survival curve), Maximum / AUSC (area under the survival curve), Mean / AUSC (area under the survival curve), Median / AUSC (area under the survival curve), Minimum: trapezoidal rule, 48 hours post treatment
Procedure: Fifty (50) HMCLs were procured from various institutions, established and characterized, and maintained in Human Myeloma Cell Line (HMCL) media with IL-6 (Mitra et al., 2016). Table 1A provides the cytogenetic characteristics of the […] cytotoxicity assays were performed on the HMCLs to create a drug sensitivity profile in response to treatment with increasing concentrations of Bz, Cz, Ix and Opz as single agents and half-maximal inhibitory concentration/IC50 values and area under the survival curve/AUSC were calculated as described in Mitra et al. (2016). Briefly, cells were counted using Countess automated cell counter (Invitrogen) and seeded in 96-well plates at a concentration of 4×10^5 cells per mL. After 24 hours, cells were treated with increasing concentrations of Bz, Cz, Ix and Opz as single agents. […] Percent survival values were normalized to untreated controls and half-maximal inhibitory concentration/IC50 values were determined by calculating the nonlinear regression using sigmoidal dose-response equation (variable slope). Area under the survival curve/AUSC was calculated using trapezoidal rule and log2-transformed for further statistical analysis (Mitra et al., 2016). Caspase3/7 activity were evaluated using Caspase-Glo®3/7 Assay kit (Promega) on Synergy 2 Microplate Reader.

[1] = Homo sapiens, maximum across panel of 50 HMCLs, read-out: IC50, Maximum
[2] = Homo sapiens, mean across panel of 50 HMCLs, read-out: IC50, Mean
[3] = Homo sapiens, median across panel of 50 HMCLs, read-out: IC50, Median
[4] = Homo sapiens, minimum across panel of 50 HMCLs, read-out: IC50, Minimum
[5] = maximum across panel of 50 HMCLs
[6] = median across panel of 50 HMCLs
[7] = minimum across panel of 50 HMCLs

Structure (SMILES) | IC50 [1] | IC50 [2] | IC50 [3] | IC50 [4] | AUSC (area under the survival curve), Maximum [5] | AUSC (area under the survival curve), Mean (mean across panel of 50 HMCLs) | AUSC (area under the survival curve), Median [6] | AUSC (area under the survival curve), Minimum [7] | IC50 (maximum across panel of 50 HMCLs, read-out: IC50, Maximum) | IC50 (mean across panel of 50 HMCLs, read-out: IC50, Mean) | IC50 (median across panel of 50 HMCLs, read-out: IC50, Median) | IC50 (minimum across panel of 50 HMCLs, read-out: IC50, Minimum)
CC(C)C[C@H](NC(=O)[C@H](Cc1ccccc1)NC(=O)c1cnccn1)B(O)O [Bortezomib] | 124 nM | 17.1 nM | 11.7 nM | 2.8 nM | 38.974 µM | 2.7001 µM | 1524.0 nM | 319.6 nM |  |  |  | 
CC(C)C[C@H](NC(=O)[C@H](CCc1ccccc1)NC(=O)CN1CCOCC1)C(=O)N[C@@H](Cc1ccccc1)C(=O)N[C@@H](CC(C)C)C(=O)[C@@]1(C)CO1 [Carfilzomib] | 55.3 nM | 10.9 nM | 7.1 nM | 0.7 nM | 19.097 µM | 3.5034 µM | 1448.5 nM | 375.5 nM |  |  |  | 
CC(C)C[C@H](NC(=O)CNC(=O)c1cc(Cl)ccc1Cl)B(O)O [Ixazomib] |  |  |  |  | 46.494 µM | 10.03 µM | 6456.0 nM | 1702.0 nM | 4760 nM | 155 nM | 42.1 nM | 15.1 nM
COC[C@H](NC(=O)c1cnc(C)s1)C(=O)N[C@@H](COC)C(=O)N[C@@H](Cc1ccccc1)C(=O)[C@@]1(C)CO1 [Oprozomib] | 776 nM | 45.8 nM | 23.7 nM | 7.6 nM | 59.917 µM | 5.017 µM | 2885.0 nM | 1050.0 nM |  |  |  | 
